According to patent US9107415B2, “2-(substituted-phenyl)-cyclopentane-1,3-dione compounds, and derivatives thereof” (Syngenta Limited, priority 2011, dated 2015):

Assays:
Type in all cases: in vivo
[1] = tested on: Alopecurus myosuroides (ALOMY); assay: Biological Example 1 glasshouse screen, post-emergence herbicidal activity; conditions: 312 h, read-out: ALOMY percentage phytotoxicity
Summary of the method: (§1)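 Thirteen days after spraying, each species was given a visual phytotoxicity score (100% = total damage; 0% = none). Application was made one day post-sowing for pre-emergence and after 8 days' cultivation for post-emergence; conditions 24/16°C, 14 h photoperiod, 65% humidity.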

[2] = tested on: Echinochloa crus-galli (ECHCG); assay: as above; conditions: 312 h, read-out: ECHCG percentage phytotoxicity
Summary of the method: as §1

Avena fatua (AVEFA) [3] = assay: as above; conditions: 312 h, read-out: AVEFA percentage phytotoxicity
Summary of the method: (§2)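 Pots in a glasshouse (24/16°C day/night, 14 h light, 65% humidity) were sprayed one day after sowing (pre-emergence) or after 8 days (post-emergence), using acetone/water (50:50) with 0.5% Tween 20. Phytotoxicity was scored visually as % damage (0-100) 13 days after application.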

Lolium perenne (LOLPE) = assay: as above; conditions: 312 h, read-out: LOLPE percentage phytotoxicity
Summary of the method: as §2

[4] = tested on: Alopecurus myosuroides (ALOMY); assay: Biological Example 4A (previously-formulated compounds) post-emergence herbicidal activity on grassy weeds; conditions: 14 DAA, EC formulation, mean of two
Method: (§3) Seeds of a variety of test species are sown in standard soil in pots. After cultivation for 14 days under controlled conditions in a glasshouse (at 22/16°C., day/night; 16 hours light; 65% humidity), the plants are sprayed with the test compounds. The test plants are then grown on under controlled conditions in the glasshouse (at 22/16°C., day/night; 16 hours light; 65% humidity) and are watered twice daily. After 14 days the test is evaluated visually (100%=total damage to plant; 0%=no damage to plant). Post-emergence herbicidal activity (phytotoxicity) data, on certain grassy monocotyledonous weeds and cereal crops in a glasshouse, are measured 14 days after application of the herbicide (14 DAA), inter alia for post-emergence application rates of 30 or 60 g/ha of the test herbicide, with or without 50 g/ha of cloquintocet-mexyl safener applied at substantially the same time as the herbicide.
(§4) Herbicidal activity (phytotoxicity) is evaluated visually, and an assessed percentage phytotoxicity score is given for each herbicidal application on each plant species (with 100%=total damage to plant; 0%=no damage to plant). Two repetitions are made for each experiment and the mean herbicidal activity (phytotoxicity) data is reported.
(§5) Biological Example 4A is used on previously-formulated compounds, typically compounds previously formulated as an emulsifiable concentrates (EC), wherein the EC contains the herbicidal compound under test dissolved in one or more organic solvents, and wherein the EC also contains one or more surfactants or emulsifiers. In the test method, the EC containing the herbicide (plus a cloquintocet-mexyl formulation if this is also present) is generally diluted with water to form an emulsion, and the resulting emulsion is sprayed onto the emerged weed and/or crop plants.
(§6) For the testing of Compounds A-5 and A-6, each of these compounds was separately formulated into an emulsifiable concentrate containing 10% w/w of the herbicidal compound, 9% w/w of castor oil ethoxylate (an emulsifier, present as Emulsogen™EL360), 6% w/w of calcium dodecylbenzenesulfonate (linear) (an emulsifier, present as Nansa™EVM 63B), 3% w/w of tristyrylphenol ethoxylate having 16 moles of ethoxylation per mole of molecule (an emulsifier, present as Soprophor™BSU), 10% w/w of benzyl benzoate (as solvent), 20% w/w of 1-methyl-2-pyrrolidone (as solvent), and the remainder of N-octyl-2-pyrrolidone (as solvent). The solvents and surfactants/emulsifiers were first mixed together, to form a “blank” EC, and the herbicidal compound was then added to and dissolved in this solvent and emulsifier mixture to prepare the emulsifiable concentrate, to give an EC formulation/composition containing approximately 100 g/L of active herbicidal compound.
(§7) In the tests of Compounds A-5 and A-6, the cloquintocet-mexyl was pre-formulated as a formulation/composition containing 10% w/w cloquintocet-mexyl, 6% w/w Emulsogen™ EL360 (as emulsifier), 4% w/w Nansa™EVM 63B (as wetting agent), 1% w/w Drapex™39 (epoxidised soybean oil), 20% w/w 1-methyl-2-pyrrolidone (as solvent), and the remainder as Solvesso™200ND (a mixture of heavy aromatic hydrocarbons, as a solvent).
(§8) Test plants: Avena fatua (AVEFA), Lolium multiflorum (LOLMU), Setaria viridis (SETVI), Poa annua (POAAN), Alopecurus myosuroides (ALOMY). All five of these are grassy monocotyledonous weeds.

Avena fatua (AVEFA) [5] = assay: as above; conditions: 14 DAA, EC formulation, mean of two
Method: as §3, §4, §5, §6, §7, §8

[6] = tested on: Lolium multiflorum (LOLMU); assay: as above; conditions: 14 DAA, EC formulation, mean of two
Method: as §3, §4, §5, §6, §7, §8

Poa annua (POAAN) = assay: as above; conditions: 14 DAA, EC formulation, mean of two
Method: as §3, §4, §5, §6, §7, §8

Setaria viridis (SETVI) = assay: as above; conditions: 14 DAA, EC formulation, mean of two
Method: as §3, §4, §5, §6, §7, §8

[7] = tested on: Spring Barley “Harrington”; assay: Biological Example 4A post-emergence phytotoxicity on cereal crops; conditions: 14 DAA, EC formulation, mean of two
Method: as §3, §4, §5, §6, §7

Spring Wheat “Teal” = assay: as above; conditions: 14 DAA, EC formulation, mean of two
Method: as §3, §4, §5, §6, §7

Winter Barley “Suzuka” = assay: as above; conditions: 14 DAA, EC formulation, mean of two
Method: as §3, §4, §5, §6, §7

Winter Wheat “Hereward” = assay: as above; conditions: 14 DAA, EC formulation, mean of two
Method: as §3, §4, §5, §6, §7

[8] = tested on: grassy monocotyledonous weeds such as Lolium, Alopecurus, Echinochloa and/or Avena; assay: Post-emergence herbicidal activity on grassy monocotyledonous weeds, summary statements (Biological Examples 1 to 4)
[9] = 30 g/ha, cloquintocet-mexyl 0 g/ha
[10] = 30 g/ha, cloquintocet-mexyl 50 g/ha
[11] = 60 g/ha, cloquintocet-mexyl 0 g/ha
[12] = 60 g/ha, cloquintocet-mexyl 50 g/ha

## CC#Cc1cc(C)c(C2C(=O)C[C@@H](Cc3ccccn3)C2=O)c(C)c1 (some centres unmarked) [Compound A-6]
[1]
  pest or weed control at 250 g/ha: 100%
[2]
  pest or weed control at 250 g/ha: 100%
Avena fatua (AVEFA) [3]
  pest or weed control at 250 g/ha: 100%
Lolium perenne (LOLPE)
  pest or weed control at 250 g/ha: 100%
[4]; [9]
  ALOMY % phytotoxicity: 100%
[4]; [10]
  ALOMY % phytotoxicity: 100%
[4]; [11]
  ALOMY % phytotoxicity: 100%
[4]; [12]
  ALOMY % phytotoxicity: 100%
Avena fatua (AVEFA) [5]; [9]
  AVEFA % phytotoxicity: 98%
Avena fatua (AVEFA) [5]; [10]
  AVEFA % phytotoxicity: 90%
Avena fatua (AVEFA) [5]; [11]
  AVEFA % phytotoxicity: 100%
Avena fatua (AVEFA) [5]; [12]
  AVEFA % phytotoxicity: 99%
[6]; [9]
  LOLMU % phytotoxicity: 100%
[6]; [10]
  LOLMU % phytotoxicity: 100%
[6]; [11]
  LOLMU % phytotoxicity: 100%
[6]; [12]
  LOLMU % phytotoxicity: 100%
Poa annua (POAAN); [9]
  POAAN % phytotoxicity: 65%
Poa annua (POAAN); [10]
  POAAN % phytotoxicity: 48%
Poa annua (POAAN); [11]
  POAAN % phytotoxicity: 94%
Poa annua (POAAN); [12]
  POAAN % phytotoxicity: 85%
Setaria viridis (SETVI); [9]
  SETVI % phytotoxicity: 100%
Setaria viridis (SETVI); [10]
  SETVI % phytotoxicity: 100%
Setaria viridis (SETVI); [11]
  SETVI % phytotoxicity: 100%
Setaria viridis (SETVI); [12]
  SETVI % phytotoxicity: 100%
[7]; [9]
  Spring Barley “Harrington” phytotoxicity (%): 95%
[7]; [10]
  Spring Barley “Harrington” phytotoxicity (%): 13%
[7]; [11]
  Spring Barley “Harrington” phytotoxicity (%): 98%
[7]; [12]
  Spring Barley “Harrington” phytotoxicity (%): 48%
Spring Wheat “Teal”; [9]
  Spring Wheat “Teal” phytotoxicity (%): 78%
Spring Wheat “Teal”; [10]
  Spring Wheat “Teal” phytotoxicity (%): 25%
Spring Wheat “Teal”; [11]
  Spring Wheat “Teal” phytotoxicity (%): 94%
Spring Wheat “Teal”; [12]
  Spring Wheat “Teal” phytotoxicity (%): 45%
Winter Barley “Suzuka”; [9]
  Winter Barley “Suzuka” phytotoxicity (%): 93%
Winter Barley “Suzuka”; [10]
  Winter Barley “Suzuka” phytotoxicity (%): 10%
Winter Barley “Suzuka”; [11]
  Winter Barley “Suzuka” phytotoxicity (%): 98%
Winter Barley “Suzuka”; [12]
  Winter Barley “Suzuka” phytotoxicity (%): 25%
Winter Wheat “Hereward”; [9]
  Winter Wheat “Hereward” phytotoxicity (%): 65%
Winter Wheat “Hereward”; [10]
  Winter Wheat “Hereward” phytotoxicity (%): 15%
Winter Wheat “Hereward”; [11]
  Winter Wheat “Hereward” phytotoxicity (%): 80%
Winter Wheat “Hereward”; [12]
  Winter Wheat “Hereward” phytotoxicity (%): 20%
[8]
  post-emergence herbicidal activity against grassy monocotyledonous weeds, in words: more potent herbicidal activity
